Data: patent US7880010B2, “Crystalline forms of a dimethylphenyl compound” (Theravance, Inc., priority 2006, dated 2011)

Legend:
[1] = biological target: T1, human β1 adrenergic receptor (Homo sapiens, UniProt P08588); experiment: Radioligand binding assay for human β adrenergic receptors; details: [3H]-dihydroalprenolol 1 nM
T1 construct: expressed in transfected cells; host or cells: HEK-293
Method: (§1) Human embryonic kidney (HEK-293) cell lines stably expressing cloned human β1 and β2 adrenergic receptors or Chinese hamster ovarian (CHO) cell lines stably expressing cloned human β3 adrenergic receptors were grown to near confluency in DMEM or Hams F-12 media with 10% FBS in the presence of 500 μg/mL Geneticin. The cell monolayer was lifted with 2 mM EDTA in PBS. Cells were pelleted by centrifugation at 1,000 rpm, and cell pellets were either stored frozen at −80° C. or membranes were prepared immediately for use. For preparation of β1 and β2 receptor expressing membranes, cell pellets were re-suspended in lysis buffer (10 mM HEPES/HCl, 10 mM EDTA, pH 7.4 at 4° C.) and homogenized using a tight-fitting Dounce glass homogenizer (30 strokes) on ice. […] The protein concentration of the membrane suspension was determined by the methods described in Lowry et al., 1951, Journal of Biological Chemistry, 193, 265; and Bradford, Analytical Biochemistry, 1976, 72, 248-54. […]
(§2) Binding assays were performed in 96-well microtiter plates in a total assay volume of 100 μL with 10-15 μg of membrane protein containing the human β1, β2 or β3 adrenergic receptors in assay buffer (75 mM Tris/HCl pH 7.4 at 25° C., 12.5 mM MgCl2, 1 mM EDTA, 0.2% BSA). […] Non-specific binding was determined in the presence of 10 μM propranolol. […] Filter plates were washed three times with filtration buffer (75 mM Tris/HCl pH 7.4 at 4° C., 12.5 mM MgCl2, 1 mM EDTA) to remove unbound radioactivity. The plates were then dried and 50 μL of Microscint-20 liquid scintillation fluid (Packard BioScience Co., Meriden, Conn.) was added and plates were counted in a Packard Topcount liquid scintillation counter (Packard BioScience Co., Meriden, Conn.). Binding data were analyzed by nonlinear regression analysis with the GraphPad Prism Software package (GraphPad Software, Inc., San Diego, Calif.) using the 3-parameter model for one-site competition. The curve minimum was fixed to the value for nonspecific binding, as determined in the presence of 10 μM propranolol. […]

[2] = biological target: T2, human β2 adrenergic receptor (Homo sapiens, UniProt P07550); experiment: as above; details: [3H]-dihydroalprenolol 1 nM
T2 construct: expressed in transfected cells; host or cells: HEK-293
Method: as §1, §2

[3] = biological target: T3, human β3 adrenergic receptor (Homo sapiens, UniProt P13945); experiment: as above; details: [125I]-(−)-iodocyanopindolol 0.5 nM
T3 construct: expressed in transfected cells; host or cells: CHO / CHO-K1
Method: as §1, §2

[4] = biological target: T1, human β1 adrenergic receptor; experiment: Whole-cell cAMP Flashplate assay, heterologously expressed receptor; format: cell-based; details: HEK-293 cells
Method: (§3) cAMP assays were performed in a radioimmunoassay format using the Flashplate Adenylyl Cyclase Activation Assay System with [^125I]-cAMP (NEN SMP004, PerkinElmer Life Sciences Inc., Boston, Mass.), according to the manufacturers instructions. For the determination of β1 and β2 […], […] HEK-293 cell lines stably expressing cloned human, β1 and β2 receptors were grown to near confluency in DMEM supplemented with 10% FBS and Geneticin (500 μg/mL). For the determination β3 receptor agonist potency (EC50), CHO-K1 cell line stably expressing cloned human or β3 adrenergic receptors was grown to near confluency in Hams F-12 media supplemented with 10% FBS and Geneticin (250 μg/mL). Cells were rinsed with PBS and detached in dPBS (Dulbecco's Phosphate Buffered Saline, without CaCl2 and MgCl2) containing 2 mM EDTA or Trypsin-EDTA solution (0.05% trypsin/0.53 mM EDTA). After counting cells in Coulter cell counter, cells were pelleted by centrifugation at 1,000 rpm and re-suspended in stimulation buffer containing IBMX (PerkinElmer Kit) pre-warmed to room temperature to a concentration of 1.6×10^6 to 2.8×10^6 cells/mL. About 40,000 to 80,000 cells per well were used in this assay. Test compounds (10 mM in DMSO) were diluted into PBS containing 0.1% BSA in Beckman Biomek-2000 and tested at 11 different concentrations ranging from 100 μM to 1 pM. Reactions were incubated for 10 min at 37° C. and stopped by adding 100 μL of cold detection buffer containing [^125I]-cAMP (NEN SMP004, PerkinElmer Life Sciences, Boston, Mass.). The amount of cAMP produced (pmol/well) was calculated based on the counts observed for the samples and cAMP standards as described in the manufacturer's user manual. Data were analyzed by nonlinear regression analysis with the GraphPad Prism Software package (GraphPad Software, Inc., San Diego, Calif.) with the sigmoidal equation. The Cheng-Prusoff equation (Cheng Y, and Prusoff W H., Biochemical Pharmacology, 1973, 22, 23, 3099-108) was used to calculate the […] values.

[5] = biological target: T2, human β2 adrenergic receptor; experiment: as above; format: cell-based; details: HEK-293 cells
Method: as §3

[6] = biological target: T3, human β3 adrenergic receptor; experiment: as above; format: cell-based; details: CHO-K1 cells
Method: as §3

T2 sequence (P07550 whole entry): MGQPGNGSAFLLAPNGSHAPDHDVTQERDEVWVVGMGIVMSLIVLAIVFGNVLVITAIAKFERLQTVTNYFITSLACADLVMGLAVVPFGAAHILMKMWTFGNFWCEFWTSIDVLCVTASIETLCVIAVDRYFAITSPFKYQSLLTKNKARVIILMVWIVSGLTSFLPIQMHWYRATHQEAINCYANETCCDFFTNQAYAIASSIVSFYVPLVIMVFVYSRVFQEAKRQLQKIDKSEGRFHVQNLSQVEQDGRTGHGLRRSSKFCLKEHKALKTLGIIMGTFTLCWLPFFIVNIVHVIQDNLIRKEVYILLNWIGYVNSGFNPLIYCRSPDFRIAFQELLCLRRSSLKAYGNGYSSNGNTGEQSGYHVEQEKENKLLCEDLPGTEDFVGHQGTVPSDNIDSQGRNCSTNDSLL
T3 sequence (P13945 whole entry): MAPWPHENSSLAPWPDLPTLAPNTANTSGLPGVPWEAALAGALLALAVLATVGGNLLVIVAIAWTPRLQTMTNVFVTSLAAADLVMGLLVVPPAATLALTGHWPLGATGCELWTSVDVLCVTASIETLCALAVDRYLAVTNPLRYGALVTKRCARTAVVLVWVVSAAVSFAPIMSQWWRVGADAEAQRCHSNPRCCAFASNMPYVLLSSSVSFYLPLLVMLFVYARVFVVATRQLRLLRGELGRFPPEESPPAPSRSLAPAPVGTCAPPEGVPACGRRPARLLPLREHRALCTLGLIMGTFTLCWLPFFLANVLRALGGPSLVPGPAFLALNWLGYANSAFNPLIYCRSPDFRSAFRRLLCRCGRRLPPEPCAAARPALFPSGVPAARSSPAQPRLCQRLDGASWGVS
T1 sequence (P08588 whole entry): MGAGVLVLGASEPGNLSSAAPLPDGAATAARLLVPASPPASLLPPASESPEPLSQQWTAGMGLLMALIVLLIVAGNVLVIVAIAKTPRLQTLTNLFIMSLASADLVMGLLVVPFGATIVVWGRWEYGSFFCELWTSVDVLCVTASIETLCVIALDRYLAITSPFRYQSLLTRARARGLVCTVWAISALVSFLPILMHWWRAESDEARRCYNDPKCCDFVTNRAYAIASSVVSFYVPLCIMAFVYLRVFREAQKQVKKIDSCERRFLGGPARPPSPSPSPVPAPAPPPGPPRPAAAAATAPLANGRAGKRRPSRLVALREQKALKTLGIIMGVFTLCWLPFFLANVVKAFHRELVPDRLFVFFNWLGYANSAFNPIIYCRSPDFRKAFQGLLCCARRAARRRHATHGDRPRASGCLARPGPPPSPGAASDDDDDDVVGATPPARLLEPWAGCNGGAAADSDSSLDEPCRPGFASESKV

## Cc1cc(NC(=O)CCN2CCC(OC(=O)Nc3ccccc3-c3ccccc3)CC2)c(C)cc1CNC[C@H](O)c1ccc(O)c(NC=O)c1 [compound of formula I, biphenyl-2-ylcarbamic acid 1-[2-(4-{[(R)-2-(3-formylamino-4-hydroxyphenyl)-2-hydroxyethylamino]methyl}-2,5-dimethylphenylcarbamoyl)ethyl]-piperidin-4-yl ester]
[1]
  Ki: > 1000 nM
[2]
  Ki: < 10 nM
[3]
  Ki: > 1000 nM
[4]
  EC50: ~30 nM
[5]
  EC50: < 10 nM
[6]
  EC50: > 700 nM
